Test results from EPA's ToxValDB 9.5 (doi:10.2903/j.efsa.2006.64r).
≈ marks a conversion by molar mass, not a printed value.

How the values were obtained:
Apis mellifera = conditions: acute, mortality
Beta vulgaris = conditions: not reported; seedling emergence
Bibionidae = conditions: chronic/long-term; duration: 28 days; seedling emergence
Daphnia magna = conditions: chronic/long-term; duration: 21 days; reproduction
Mus musculus = conditions: acute; oral; mortality
Oncorhynchus mykiss = conditions: mortality
Oryctolagus sp. = conditions: developmental; development
Typhlodromus pyri = conditions: acute; duration: 7 days; mortality

**Q.** With `CC1(C)CCC(Cc2ccc(Cl)cc2)C1(O)Cn1cncn1` (stereo not given) [Metconazole] as the molecule, how does the LD50 (Apis mellifera; duration: 72 hours, oral, unspecified) read?
**A.** > 85 µg/piece

**Q.** What about the LD50 (Apis mellifera; duration: 96 hours, dermal) of the same molecule?
**A.** > 100 µg/piece

**Q.** And the NOEC (Beta vulgaris)?
**A.** 96 g/ha

**Q.** And the NOEC (Bibionidae)?
**A.** 2.12 mg/L

**Q.** What about the LD50 (Bird; acute, oral, unspecified, mortality) of the same molecule?
**A.** 787 mg/kg

**Q.** And the NOEC (Bird; reproductive, duration: 22 weeks)?
**A.** 6.19 mg/kg-day

**Q.** And the LC50 (Bird; short-term, oral, feed, mortality)?
**A.** 168 mg/kg-day

**Q.** What about the NOEC (Daphnia magna) of the same molecule?
**A.** 0.16 mg/L

**Q.** And the LD50 (Mus musculus)?
**A.** 410 mg/kg

**Q.** What about the LC50 (Oncorhynchus mykiss; acute, duration: 72 hours) of the same molecule?
**A.** 2.1 µg/mL (≈ 6.57 µM)

**Q.** And the NOEC (Oncorhynchus mykiss; chronic/long-term, duration: 95 days)?
**A.** 0.00291 mg/L

**Q.** What about the NOAEL (Oryctolagus sp.) of the same molecule?
**A.** 4 mg/kg-day

**Q.** What about the LC50 (Tagia sp.; acute, duration: 14 days, mortality) of the same molecule?
**A.** > 1000 mg/kg

**Q.** And the NOEC (Tagia sp.; chronic/long-term, reproduction)?
**A.** 1.8 mg/kg

**Q.** What about the LEL (Typhlodromus pyri) of the same molecule?
**A.** 180 g/ha
